{"source": "patent EP4306108A1", "about": "“5-AMINOLEVULINIC ACID, OR AN ESTER THEREOF FOR USE IN TREATMENT OF CANCER BASED ON THE INHIBITION OF LACTATE DEHYDROGENASE” (Theodossiou, Theodossis, priority 2022, dated 2024)", "key": {"[1]": {"target": "LDH-A isoform (Homo sapiens, UniProt P00338)", "assay": "Spectrophotometric LDH kinetics (NADH absorbance at 340 nm), enzyme solution"}, "[2]": {"test_system": "MO59K", "assay": "Seahorse XFe96 metabolic assay (OCR/ECAR), in-situ injection of 5-ALA", "type": "cell-based, human", "details": "MO59K cells; 5-ALA 500 - 1000 µM injected in situ; Figure 1", "procedure": "(§1) The cells used in the present examples were human glioblastoma multiforme (GBM) cell lines, purchased from the American Type Culture Collection (ATCC, Manassas, VA, USA). These cell lines were LN18 (ATCC®, CRL-2610™), U87 (ATCC®, HTB-14™), T98G (ATCC®, CRL-1690™) and M059K (ATCC®, CRL-2365™). All cells were grown in RPMI 1640 without phenol red, supplemented with 10% fetal bovine serum (FBS) and penicillin/streptomycin at 37 °C in a 5% CO2 and 95% humidified atmosphere.\n(§2) In order to study the changes in cell metabolism in GBM cells following the in-situ addition of 5-ALA, the Seahorse XFe96 analyzer (Agilent Technologies) was employed. Briefly, 4×10^4 cells were seeded in a seahorse plate and incubated overnight in complete RPMI 1640 medium at 37 °C, and a 5% CO2 humidified atmosphere. One hour prior to the experiments, the cells had their media changed to unbuffered XF RPMI pH 7.4 medium supplemented with 10 mM glucose, 2 mM L-glutamine, and 2 mM sodium pyruvate and were incubated for one hour at 37 °C, 0% CO2 atmosphere. The basal oxygen consumption and media acidification rates (OCR and ECAR respectively) of the cell groups were measured in four cycles. After those four cycles injections of i) 5-ALA (500 - 1000 µM), ii) Oligomycin A (OLIGO) 1 µM, iii) Carbonyl cyanide 4-(trifluoromethoxy)phenylhydrazone (FCCP) 1 µM and iv) Antimycin A (ANTI A) and Rotenone (ROT) 2 µM each were sequentially performed for 3 measurement cycles each."}, "[3]": {"test_system": "U87", "assay": "Seahorse XFe96 metabolic assay (OCR/ECAR), in-situ injection of 5-ALA", "type": "cell-based, human", "details": "U87 cells; 5-ALA 500 - 1000 µM injected in situ; Figure 1", "procedure": "as §1, §2"}, "[4]": {"test_system": "LN18", "assay": "Seahorse XFe96 metabolic assay (OCR/ECAR), in-situ injection of 5-ALA", "type": "cell-based, human", "details": "LN18 cells; 5-ALA 500 - 1000 µM injected in situ; Figure 1", "procedure": "as §1, §2"}, "[5]": {"test_system": "T98G", "assay": "Seahorse XFe96 metabolic assay (OCR/ECAR), in-situ injection of 5-ALA", "type": "cell-based, human", "details": "T98G cells; 5-ALA 500 - 1000 µM injected in situ; Figure 1", "procedure": "as §1, §2"}, "[6]": {"test_system": "LDH present in cell lysates, Ln18", "assay": "Spectrophotometric LDH kinetics (NADH absorbance at 340 nm), cell lysates", "type": "biochemical, human", "details": "0.75 mM 5-ALA, no inhibitor: -1.48", "procedure": "as §1\n(§3) A. enzyme solutions. 0.5 mL of an aqueous LDH solution was mixed with 0.5 mL reaction buffer to start the LDH reduction of pyruvate. The final LDH concentration was always 5 µM."}, "[7]": {"test_system": "LDH present in cell lysates, U87", "assay": "Spectrophotometric LDH kinetics (NADH absorbance at 340 nm), cell lysates", "type": "biochemical, human", "details": "0.75 mM 5-ALA, no inhibitor: -1.43", "procedure": "as §1, §3"}, "[8]": {"test_system": "U87", "assay": "MTT cell viability assay", "type": "cell-based, human", "details": "U87 cells", "procedure": "as §1\n(§4) The cells were incubated with 5, 10 and 20 mM 5-ALA for three days and each day the effect of 5-ALA on their viability was assessed by standard MTT assays at 24, 48 and 72h following incubation. The results are shown in Figure 5 (Error bars represent one SD)."}, "[9]": {"test_system": "LN18", "assay": "MTT cell viability assay", "type": "cell-based, human", "details": "LN18 cells", "procedure": "as §1, §4"}, "[10]": {"test_system": "T98G", "assay": "MTT cell viability assay", "type": "cell-based, human", "details": "T98G cells; 10mM 5-ALA; after 72h incubation", "procedure": "as §1, §4"}, "[11]": {"test_system": "LDH present in cell lysates, M059K", "assay": "Spectrophotometric LDH kinetics (NADH absorbance at 340 nm), cell lysates", "type": "biochemical, human", "details": "0.75 mM 5-ALA, no inhibitor: -1.47", "procedure": "as §1\n(§5) A. enzyme solutions. 0.5 mL of an aqueous LDH solution was mixed with 0.5 mL reaction buffer to start the LDH reduction of pyruvate. The final LDH concentration was always 5 µM. […] The final concentration of 5-ALA in the total volume of the reaction mix (1 mL) was 5 mM for 5-ALA. In the enzymatic assays LDH refers to the LDH-A isoform.\n(§6) In the second phase of the experiments, the enzymatic activity of LDH present in cell lysates was investigated.\n(§7) Cell lysates were obtained from LN18, T98G, U87 and M059K GBM cells. In brief, cells from confluent T175 flasks were harvested with the use of TrypLE™ Express Enzyme (Gibco, REF# 12604021) and resuspended in ddH2O with Triton™ X-100 (0,25%). The cell lysate measurements were performed according to the enzymatic solution measurents, however in this case, cell lysates equivalent to […] were each time added to the H2O half of the reaction mix. […]"}, "[12]": {"test_system": "LDH present in cell lysates, T98G", "assay": "Spectrophotometric LDH kinetics (NADH absorbance at 340 nm), cell lysates", "type": "biochemical, human", "details": "0.75 mM 5-ALA, no inhibitor: -1.20", "procedure": "as §1, §5, §6, §7"}, "[13]": {"test_system": "U87", "assay": "Seahorse XF Real-Time ATP Rate Assay", "type": "cell-based, human", "details": "U87 cells, 1000µM of 5-ALA, change versus control", "procedure": "as §1, §2\n(§8) The ATP contributions of mitochondrial respiration and cell glycolysis in U87, T98G, M059K and LN18 human GBM cells in the presence or absence of 5-ALA, were deconvoluted quantified by use of the Seahorse XF Real-Time ATP Rate Assay Kit. In brief the same protocol as in Example 1 was followed without the injection of FCCP and with only three basal measurement cycles, while the corresponding final concentrations of OLIGO and ROT/ANTI A were this time 1.5 and 0.5 µM. The ATP rates were determined with use of the Agilent Seahorse XF Real-Time ATP Rate Assay Report Generator.\n(§9) The wells in the bottom row of the seahorse plates were in all cases left devoid of cells and were used as blank values. These were automatically subtracted by the Seahorse analyser software.\n(§10) The changes in ATP production from either respiration or glycolysis were evaluated upon addition of 1000µM of 5-ALA."}, "[14]": {"test_system": "LN18", "assay": "Seahorse XF Real-Time ATP Rate Assay", "type": "cell-based, human", "details": "LN18 cells; 1000µM of 5-ALA; change versus control", "procedure": "as §1, §2, §8, §9, §10"}, "[15]": {"test_system": "T98G", "assay": "Seahorse XF Real-Time ATP Rate Assay", "type": "cell-based, human", "details": "T98G cells; 1000µM of 5-ALA; change versus control", "procedure": "as §1, §2, §8, §9, §10"}, "[16]": {"test_system": "M059K", "assay": "Seahorse XF Real-Time ATP Rate Assay", "type": "cell-based, human", "details": "M059K cells; 1000µM of 5-ALA; change versus control", "procedure": "as §1, §2, §8, §9, §10"}, "[17]": {"details": "10mM 5-ALA, all time points (24, 48 and 72h)"}, "[18]": {"details": "20 mM 5-ALA, compared with the 90-98% reduction at 10mM"}}, "data": [{"smiles": "NCC(=O)CCC(=O)O", "note": "[5-ALA, 5-Aminolevulinic acid]", "values": [{"measurement": "initial slope of NADH absorbance curve (corresponds to Vmax of the enzyme)", "setting": "[1]; Enzyme solution, 5 mM 5-ALA, first 5 data points (8 sec), pH 6.5, no inhibitor: -2.28", "result": -0.51}, {"measurement": "activity at 5000 µM", "setting": "[1]; read-out: enzyme function as % of its Vmax", "result": "~22", "unit": "%"}, {"measurement": "glycolytic activity", "setting": "[2]", "result": "drop in the glycolytic activity of those cell lines which was dose dependent"}, {"measurement": "glycolytic activity", "setting": "[3]", "result": "drop in the glycolytic activity of those cell lines which was dose dependent"}, {"measurement": "glycolytic activity", "setting": "[4]", "result": "drop in the glycolytic activity of those cell lines which was dose dependent"}, {"measurement": "glycolytic activity", "setting": "[5]", "result": "drop in the glycolytic activity of those cell lines which was dose dependent"}, {"measurement": "initial slope of NADH absorbance curve (LDH Vmax for the cell lysate volume studied)", "setting": "[6]", "result": -0.47}, {"measurement": "initial slope of NADH absorbance curve (LDH Vmax for the cell lysate volume studied)", "setting": "[7]", "result": -0.32}, {"measurement": "reduction in cell viability", "setting": "[8]; [17]", "result": "90-98%"}, {"measurement": "reduction in cell viability", "setting": "[8]; [18]", "result": "in general, maintained"}, {"measurement": "reduction in cell viability", "setting": "[9]; [17]", "result": "90-98%"}, {"measurement": "reduction in cell viability", "setting": "[9]; [18]", "result": "in general, maintained"}, {"measurement": "lethality level reached (cell viability)", "setting": "[10]", "result": "LD40"}, {"measurement": "initial slope of NADH absorbance curve (LDH Vmax for the cell lysate volume studied)", "setting": "[11]", "result": -0.53}, {"measurement": "initial slope of NADH absorbance curve (LDH Vmax for the cell lysate volume studied)", "setting": "[12]", "result": -0.57}, {"measurement": "reduction in glycolytic ATP production", "setting": "[13]", "result": "~-200", "unit": "pmol/min"}, {"measurement": "increase in mitochondrial respiration-derived ATP", "setting": "[13]; marginally significant", "result": "~ 100 pmole/min"}, {"measurement": "reduction in glycolytic ATP production", "setting": "[14]", "result": "~-140", "unit": "pmol/min"}, {"measurement": "reduction in glycolytic ATP production", "setting": "[15]", "result": "~-200", "unit": "pmol/min"}, {"measurement": "reduction in glycolytic ATP production", "setting": "[16]", "result": "~ -250 pmole/min"}]}]}
